Test results published in US20140275233A1, “ACTIVATED SOY POD FIBER” (priority 2013, published 2014).
Values joined by “and” are separate entries in the source; they are usually repeats but may differ in a detail not shown here. Identical values can stand only once.

System: 3T3-L1 adipocytes
Test: [3H]-2-deoxy-glucose uptake by adipocytes
Format: cell-based, Murine
Procedure: To determine if one mechanism for glyceollins to improve the oral glucose challenge in a prediabetic model is by increasing the glucose uptake by fat, glyceollin pharmacology was studied in 3T3-L1 cells. Murine preadipocytes (Zen-Bio Inc.) were cultured using PM-1-L1 medium (Zen-Bio Inc.) containing Dulbecco's modified Eagle's medium (DMEM)/Ham's F-10 medium (1:1, v/v), HEPES 15 mM (pH 7.4), 10% (v/v) fetal bovine serum, penicillin (100 U/ml), streptomycin ([…]), and amphotericin B (0.25 μg/ml) in a humidified atmosphere (5% CO2/95% air). After 3-4 days, confluent cells were placed in differentiation medium (DM-2-L1, Zen-Bio Inc.) containing DMEM/Ham's F-10 medium (1:1, v/v), HEPES 15 mM (pH 7.4), 3% (v/v) fetal bovine serum, biotin (33 μM), pantothenate (17 μM), human insulin (100 nM), dexamethasone (1 μM), penicillin (100 U/ml), streptomycin (100 μg/ml), amphotericin B (0.25 μg/ml), isobutylmethylxanthine ([…]) and PPARγ agonist (10 μM) and further incubated in the humidified atmosphere for 3 days. […]
Adipocytes were rinsed in sterile, fresh KRH buffer (HEPES pH=7.4, 1 mM CaCl2, 1.2 mM MgSO4, 1 mM KH2PO4, 1.4 mM KCl, […], 130 mM NaCl), and then preincubated for 24 h in KRH buffer. […] The vials were mixed and counted for 10 min in an Applied Biosystems 1100 liquid scintillation counter using the factory preset window to detect tritium.

With insulin the EC50 (30 min exposure at 37° C., 0.3-300 nM, n=6, read-out: EC50 of insulin-mediated glucose uptake) was 1.9 nM and 1.92 nM and the “maximal stimulation of glucose uptake relative to basal” value (insulin 0.3 nM-300 nM) was “about 3 times”.
